In patent US20260224588A1, “BENZODIAZEPINONE-DERIVED INHIBITORS OF EGFR AND HER2” (The Research Foundation for the State University of New York, priority 2023, published 2026):

How the values were obtained:
Test in all cases: KINOMEscan
Type in all cases: binding
Details in all cases: 1 μM of compound 4; read-out: POC
[1] = biological target: T1, ABL1(M351T)-phosphorylated (Homo sapiens, UniProt P00519, M351T)
T1 construct: purchased Eurofins DiscoverX Corporation

[2] = biological target: T2, ABL1-phosphorylated (Homo sapiens, UniProt P00519)
T2 construct: purchased Eurofins DiscoverX Corporation

[3] = biological target: AURKA (Homo sapiens, UniProt O14965)
Chain of AURKA (O14965 whole entry): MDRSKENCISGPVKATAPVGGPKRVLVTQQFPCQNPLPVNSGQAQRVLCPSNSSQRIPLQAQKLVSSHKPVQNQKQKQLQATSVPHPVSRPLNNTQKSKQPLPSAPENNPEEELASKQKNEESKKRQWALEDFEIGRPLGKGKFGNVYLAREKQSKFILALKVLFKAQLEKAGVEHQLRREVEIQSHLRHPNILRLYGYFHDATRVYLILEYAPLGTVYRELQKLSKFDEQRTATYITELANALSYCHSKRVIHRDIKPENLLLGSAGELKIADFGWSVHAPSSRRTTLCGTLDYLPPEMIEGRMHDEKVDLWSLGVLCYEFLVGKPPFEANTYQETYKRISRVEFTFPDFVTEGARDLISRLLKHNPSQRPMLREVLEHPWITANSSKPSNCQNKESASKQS

[4] = biological target: BRSK1 (Homo sapiens, UniProt Q8TDC3)
[5] = biological target: CAMK4 (Homo sapiens, UniProt Q16566)
Chain of CAMK4 (Q16566 whole entry): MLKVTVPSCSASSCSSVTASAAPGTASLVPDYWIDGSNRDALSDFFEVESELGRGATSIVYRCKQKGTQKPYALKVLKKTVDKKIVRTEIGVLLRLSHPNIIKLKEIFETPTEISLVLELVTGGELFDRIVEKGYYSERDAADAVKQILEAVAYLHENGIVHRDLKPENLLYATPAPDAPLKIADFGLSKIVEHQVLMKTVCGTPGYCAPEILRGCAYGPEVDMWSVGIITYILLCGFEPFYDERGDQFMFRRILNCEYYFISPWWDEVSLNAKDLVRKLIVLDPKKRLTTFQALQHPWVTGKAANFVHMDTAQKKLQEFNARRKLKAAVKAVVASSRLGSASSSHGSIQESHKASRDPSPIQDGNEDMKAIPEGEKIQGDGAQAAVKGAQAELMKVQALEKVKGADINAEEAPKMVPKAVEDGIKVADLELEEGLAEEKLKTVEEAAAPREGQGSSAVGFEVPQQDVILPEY

[6] = biological target: CDC2L5 (Homo sapiens, UniProt Q14004)
[7] = biological target: CDK11 (Homo sapiens, UniProt Q9BWU1)
[8] = biological target: CDK7 (Homo sapiens, UniProt P50613)
[9] = biological target: CSK (Homo sapiens, UniProt P41240)
[10] = biological target: CSNK1A1L (Homo sapiens, UniProt Q8N752)
Chain of CSNK1A1L (Q8N752 whole entry): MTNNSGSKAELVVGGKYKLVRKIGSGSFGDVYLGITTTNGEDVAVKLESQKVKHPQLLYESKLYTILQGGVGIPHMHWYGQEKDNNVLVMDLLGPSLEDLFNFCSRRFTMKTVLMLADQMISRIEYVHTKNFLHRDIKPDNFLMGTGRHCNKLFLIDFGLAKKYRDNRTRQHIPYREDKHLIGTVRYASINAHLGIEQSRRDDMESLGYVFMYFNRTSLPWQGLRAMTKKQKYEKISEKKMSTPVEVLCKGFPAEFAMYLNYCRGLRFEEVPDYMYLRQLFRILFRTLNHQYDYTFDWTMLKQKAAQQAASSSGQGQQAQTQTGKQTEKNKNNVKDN

[11] = biological target: CSNK1G1 (Homo sapiens, UniProt Q9HCP0)
[12] = biological target: DDR1 (Homo sapiens, UniProt Q08345)
[13] = biological target: DDR2 (Homo sapiens, UniProt Q16832)
[14] = biological target: DRAK1 (Homo sapiens, UniProt Q9UEE5)
Chain of DRAK1 (Q9UEE5 whole entry): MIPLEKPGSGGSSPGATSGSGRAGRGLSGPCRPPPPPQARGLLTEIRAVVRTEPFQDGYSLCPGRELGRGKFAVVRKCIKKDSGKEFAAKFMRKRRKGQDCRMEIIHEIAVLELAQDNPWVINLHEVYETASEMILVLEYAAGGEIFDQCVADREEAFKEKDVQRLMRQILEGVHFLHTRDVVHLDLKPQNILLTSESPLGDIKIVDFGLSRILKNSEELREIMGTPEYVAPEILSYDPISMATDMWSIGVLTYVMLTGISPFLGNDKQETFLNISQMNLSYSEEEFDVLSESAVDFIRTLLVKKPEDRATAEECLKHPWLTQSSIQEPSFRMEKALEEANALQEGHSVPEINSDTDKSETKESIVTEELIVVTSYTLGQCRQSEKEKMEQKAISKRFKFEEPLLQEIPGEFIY

[15] = biological target: T3, EPHA5 (Homo sapiens, UniProt P54756)
T3 construct: purchased Eurofins DiscoverX (KINOMEscan service)
T3 sequence (P54756 25-1037): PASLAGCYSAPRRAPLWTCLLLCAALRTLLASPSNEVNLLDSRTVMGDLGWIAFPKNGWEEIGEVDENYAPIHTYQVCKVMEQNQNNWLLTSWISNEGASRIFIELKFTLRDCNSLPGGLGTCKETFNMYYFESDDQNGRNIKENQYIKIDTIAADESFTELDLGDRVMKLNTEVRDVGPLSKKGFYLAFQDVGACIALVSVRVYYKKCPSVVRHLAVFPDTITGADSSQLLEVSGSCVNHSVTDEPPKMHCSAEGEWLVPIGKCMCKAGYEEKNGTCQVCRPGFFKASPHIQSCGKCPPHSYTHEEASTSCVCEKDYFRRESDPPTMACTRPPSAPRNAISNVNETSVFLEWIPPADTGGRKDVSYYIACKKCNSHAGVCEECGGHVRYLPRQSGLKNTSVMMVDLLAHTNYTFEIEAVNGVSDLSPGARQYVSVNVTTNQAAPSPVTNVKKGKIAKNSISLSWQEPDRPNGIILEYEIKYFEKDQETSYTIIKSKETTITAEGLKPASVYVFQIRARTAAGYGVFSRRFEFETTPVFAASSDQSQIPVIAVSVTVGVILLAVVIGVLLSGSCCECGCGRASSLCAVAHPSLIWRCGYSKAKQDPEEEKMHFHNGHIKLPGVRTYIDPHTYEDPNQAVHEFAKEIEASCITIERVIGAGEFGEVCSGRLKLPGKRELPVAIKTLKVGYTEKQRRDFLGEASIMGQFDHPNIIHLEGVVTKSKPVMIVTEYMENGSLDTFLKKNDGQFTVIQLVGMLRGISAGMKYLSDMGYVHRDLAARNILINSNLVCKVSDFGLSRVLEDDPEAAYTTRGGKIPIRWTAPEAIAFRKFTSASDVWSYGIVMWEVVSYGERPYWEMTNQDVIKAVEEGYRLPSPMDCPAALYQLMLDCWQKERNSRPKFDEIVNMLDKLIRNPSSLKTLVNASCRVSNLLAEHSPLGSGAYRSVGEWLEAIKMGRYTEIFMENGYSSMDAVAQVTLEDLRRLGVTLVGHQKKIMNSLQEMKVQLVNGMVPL

[16] = biological target: T4, ERK2 (Homo sapiens, UniProt P28482)
T4 construct: purchased Eurofins DiscoverX Corporation

[17] = biological target: T5, ERN1 (Homo sapiens, UniProt O75460)
T5 construct: purchased Eurofins DiscoverX Corporation

[18] = biological target: T6, FAK (Homo sapiens, UniProt Q05397)
T6 construct: purchased Eurofins DiscoverX Corporation

[19] = biological target: T7, HIPK1 (Homo sapiens, UniProt Q86Z02)
T7 construct: purchased Eurofins DiscoverX Corporation

[20] = biological target: KIT(D816V) (Homo sapiens, UniProt P10721, D816V)
[21] = biological target: LATS2 (Homo sapiens, UniProt Q9NRM7)
[22] = biological target: NEK6 (Homo sapiens, UniProt Q9HC98)
[23] = biological target: T8, OSR1 (Homo sapiens, UniProt O95747)
T8 construct: purchased Eurofins DiscoverX Corporation (KINOMEscan)

[24] = biological target: T9, PCTK1 (Homo sapiens, UniProt Q00536)
T9 construct: purchased Eurofins DiscoverX Corporation (KINOMEscan)

[25] = biological target: T10, PFPK5(P. falciparum) (Plasmodium falciparum, UniProt P61075)
T10 construct: purchased Eurofins DiscoverX Corporation (KINOMEscan)

[26] = biological target: PIK3CA(E545K) (Homo sapiens, UniProt P42336, E545K)
[27] = biological target: PLK1 (Homo sapiens, UniProt P53350)
[28] = biological target: PRKCQ (Homo sapiens, UniProt Q04759)
Chain of PRKCQ (Q04759 whole entry): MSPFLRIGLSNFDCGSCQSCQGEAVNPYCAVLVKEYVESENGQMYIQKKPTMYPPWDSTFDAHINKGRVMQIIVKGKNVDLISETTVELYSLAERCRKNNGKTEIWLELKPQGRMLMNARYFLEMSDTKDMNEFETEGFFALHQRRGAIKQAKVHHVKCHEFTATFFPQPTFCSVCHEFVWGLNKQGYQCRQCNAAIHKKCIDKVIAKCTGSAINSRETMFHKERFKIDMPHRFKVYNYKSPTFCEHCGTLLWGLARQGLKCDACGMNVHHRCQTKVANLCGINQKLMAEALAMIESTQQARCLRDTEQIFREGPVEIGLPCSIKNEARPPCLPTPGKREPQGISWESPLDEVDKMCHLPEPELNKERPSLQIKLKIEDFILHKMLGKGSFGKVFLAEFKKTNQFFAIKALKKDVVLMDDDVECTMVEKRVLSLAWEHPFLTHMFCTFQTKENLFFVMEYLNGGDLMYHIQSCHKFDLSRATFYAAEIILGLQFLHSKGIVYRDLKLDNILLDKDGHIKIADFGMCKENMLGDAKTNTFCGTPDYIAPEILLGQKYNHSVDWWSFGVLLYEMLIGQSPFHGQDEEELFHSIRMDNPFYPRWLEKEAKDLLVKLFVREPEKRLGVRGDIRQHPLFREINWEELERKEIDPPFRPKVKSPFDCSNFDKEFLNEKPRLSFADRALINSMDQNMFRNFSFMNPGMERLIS

[29] = biological target: PRKR (Homo sapiens, UniProt P19525)
Chain of PRKR (P19525 whole entry): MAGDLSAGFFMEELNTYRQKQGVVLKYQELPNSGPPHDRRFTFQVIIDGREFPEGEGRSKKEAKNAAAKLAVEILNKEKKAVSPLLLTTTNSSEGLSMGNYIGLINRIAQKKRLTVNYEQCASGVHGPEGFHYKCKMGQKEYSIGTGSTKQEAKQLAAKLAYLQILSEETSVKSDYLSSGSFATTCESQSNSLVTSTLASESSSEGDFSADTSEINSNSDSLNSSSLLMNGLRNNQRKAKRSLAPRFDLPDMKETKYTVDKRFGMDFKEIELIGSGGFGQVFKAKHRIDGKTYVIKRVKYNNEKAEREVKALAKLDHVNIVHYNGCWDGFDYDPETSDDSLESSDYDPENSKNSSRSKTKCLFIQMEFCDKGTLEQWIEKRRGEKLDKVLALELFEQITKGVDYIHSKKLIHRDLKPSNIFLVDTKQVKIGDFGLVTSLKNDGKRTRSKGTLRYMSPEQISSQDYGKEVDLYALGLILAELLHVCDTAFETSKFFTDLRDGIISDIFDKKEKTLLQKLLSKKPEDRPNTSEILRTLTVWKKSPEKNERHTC

[30] = biological target: T11, QSK (Homo sapiens, UniProt Q9Y2K2)
T11 construct: purchased Eurofins DiscoverX Corporation (KINOMEscan screening service)

[31] = biological target: T12, RET(V804L) (Homo sapiens, UniProt P07949, V804L)
T12 construct: purchased Eurofins DiscoverX Corporation (KINOMEscan screening service)
T12 sequence (P07949 29-1114 V804L): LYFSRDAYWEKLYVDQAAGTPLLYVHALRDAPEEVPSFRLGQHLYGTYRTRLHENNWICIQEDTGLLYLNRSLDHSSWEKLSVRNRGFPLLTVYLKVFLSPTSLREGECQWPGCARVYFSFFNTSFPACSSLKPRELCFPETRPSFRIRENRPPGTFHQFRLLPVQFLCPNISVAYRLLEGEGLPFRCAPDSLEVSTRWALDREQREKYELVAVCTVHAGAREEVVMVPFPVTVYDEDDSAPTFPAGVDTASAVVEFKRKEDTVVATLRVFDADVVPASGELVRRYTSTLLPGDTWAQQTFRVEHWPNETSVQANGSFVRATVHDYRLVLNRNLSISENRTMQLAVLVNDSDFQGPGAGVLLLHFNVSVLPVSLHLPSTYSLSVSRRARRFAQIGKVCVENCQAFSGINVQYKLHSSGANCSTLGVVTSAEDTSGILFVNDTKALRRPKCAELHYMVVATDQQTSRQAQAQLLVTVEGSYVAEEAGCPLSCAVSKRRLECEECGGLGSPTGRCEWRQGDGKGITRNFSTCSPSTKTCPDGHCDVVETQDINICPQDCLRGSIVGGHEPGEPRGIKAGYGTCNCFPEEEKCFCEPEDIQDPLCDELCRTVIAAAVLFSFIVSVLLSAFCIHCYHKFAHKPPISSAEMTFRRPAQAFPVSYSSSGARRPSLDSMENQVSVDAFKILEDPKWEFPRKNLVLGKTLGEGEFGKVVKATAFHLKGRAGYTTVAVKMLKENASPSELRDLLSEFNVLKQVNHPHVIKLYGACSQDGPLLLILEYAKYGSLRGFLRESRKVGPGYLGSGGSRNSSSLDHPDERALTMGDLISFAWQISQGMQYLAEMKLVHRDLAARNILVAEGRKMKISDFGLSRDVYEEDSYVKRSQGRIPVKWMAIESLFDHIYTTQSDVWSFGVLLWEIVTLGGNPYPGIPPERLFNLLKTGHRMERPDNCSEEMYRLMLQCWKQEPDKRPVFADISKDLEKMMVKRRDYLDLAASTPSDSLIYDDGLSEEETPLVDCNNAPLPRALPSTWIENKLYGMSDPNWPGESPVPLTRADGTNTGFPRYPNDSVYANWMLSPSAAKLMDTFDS

[32] = biological target: T13, RIPK4 (Homo sapiens, UniProt P57078)
T13 construct: purchased Eurofins DiscoverX Corporation (KINOMEscan screening service)

[33] = biological target: T14, STK33 (Homo sapiens, UniProt Q9BYT3)
T14 construct: purchased Eurofins DiscoverX (KINOMEscan service)

[34] = biological target: T15, TAOK3 (Homo sapiens, UniProt Q9H2K8)
T15 construct: purchased Eurofins DiscoverX Corporation

[35] = biological target: T16, TGFBR1 (Homo sapiens, UniProt P36897)
T16 construct: purchased Eurofins DiscoverX Corporation

[36] = biological target: T17, TNK2 (Homo sapiens, UniProt Q07912)
T17 construct: purchased Eurofins DiscoverX Corporation

[37] = biological target: T18, WNK1 (Homo sapiens, UniProt Q9H4A3)
T18 construct: purchased Eurofins DiscoverX

[38] = biological target: T19, WNK3 (Homo sapiens, UniProt Q9BYP7)
T19 construct: purchased Eurofins DiscoverX

[39] = biological target: T20, YSK1 (Homo sapiens, UniProt O00506)
T20 construct: purchased Eurofins DiscoverX

C=CC(=O)Nc1ccc(OC)c(Nc2cc(-c3[nH]c(CC)nc3-c3cccc(NC(=O)c4cccc5c4NC(=O)c4ccccc4N5)c3)ccn2)c1 [Compound 4, N-(3-(5-(2-((5-Acrylamido-2-methoxyphenyl)amino)pyridin-4-yl)-2-ethyl-1H-imidazol-4-yl)phenyl)-11-oxo-10,11-dihydro-5H-dibenzo[b,e][1,4]diazepine-9-carboxamide]
remaining binding at 1 µM [1]: 67%
remaining binding at 1 µM [2]: 80%
remaining binding at 1 µM [3]: 90%
remaining binding at 1 µM [4]: 100%
remaining binding at 1 µM [5]: 99%
remaining binding at 1 µM [6]: 74%
remaining binding at 1 µM [7]: 100%
remaining binding at 1 µM [8]: 49%
remaining binding at 1 µM [9]: 14%
remaining binding at 1 µM [10]: 91%
remaining binding at 1 µM [11]: 93%
remaining binding at 1 µM [12]: 90%
remaining binding at 1 µM [13]: 100%
remaining binding at 1 µM [14]: 84%
remaining binding at 1 µM [15]: 100%
remaining binding at 1 µM [16]: 100%
remaining binding at 1 µM [17]: 74%
remaining binding at 1 µM [18]: 99%
remaining binding at 1 µM [19]: 51%
remaining binding at 1 µM [20]: 94%
remaining binding at 1 µM [21]: 62%
remaining binding at 1 µM [22]: 100%
remaining binding at 1 µM [23]: 89%
remaining binding at 1 µM [24]: 100%
remaining binding at 1 µM [25]: 100%
remaining binding at 1 µM [26]: 100%
remaining binding at 1 µM [27]: 50%
remaining binding at 1 µM [28]: 18%
remaining binding at 1 µM [29]: 87%
remaining binding at 1 µM [30]: 100%
remaining binding at 1 µM [31]: 99%
remaining binding at 1 µM [32]: 100%
remaining binding at 1 µM [33]: 100%
remaining binding at 1 µM [34]: 95%
remaining binding at 1 µM [35]: 75%
remaining binding at 1 µM [36]: 3.8%
remaining binding at 1 µM [37]: 100%
remaining binding at 1 µM [38]: 78%
remaining binding at 1 µM [39]: 76%
